The values that follow come from patent US20060148104A1, “Detection of ion channel or receptor activity” (Massachusetts Institute of Technology, priority 2004, published 2006).

Experiment [1] deals with TRPV3-EGFP-cc. In words: whole-cell patch clamp recordings, HEK293T cells transiently transfected with TRPV3-EGFP-cc. It counts as cell-based, Mouse. To be noted: 100 μM 2APB. An excerpt: (§1) Cloning of TRPV3, TRPV1 and P2X2 into the EGFP-cc and EGFP-barstar vectors. The multiple cloning site (MCS) 3′ of the EGFP-C1 vector is not affected by the heptad repeat or barstar insertion described above, i.e., the restriction sites at the 3 prime end of EGFP are identical to the original EGFP-C1 clone. This MCS was used to clone each of three different ion channel subunits in-frame with the EGFP-heptad repeat module or EGFP-barstar module that had been inserted into the EGFP-C1 vector. Mouse TRPV3 cDNA was amplified either from total mouse cDNA or from plasmids containing the appropriate subunit sequence by PCR using the following primers: […]
(§2) Transient transfection of COS and HEK cells. COS or HEK cells were transfected using Lipofectamine 2000 (Invitrogen) according to the manufacture's protocol. In brief, 2 μg of the respective DNA plasmid were incubated for 30 min with 6 μl of Lipofectamine in 200 μl of Optimem medium (Gibco) at room temperature. Cells were incubated with the DNA-Lipofectamine complex for 3 h at 37 degrees Celsius in 500 μl Optimem medium. Afterwards the medium was replaced with DMEM containing 10% FCS. Cells were assayed for expression and activity of the engineered ion channels 24-48 h after transfection.
(§3) Characterization of functional activity of engineered ion channel subunits. […]
For orientation: In patch-clamp work, channel activity is measured electrically.

For a further experiment, the system named is TRPV3-EGFP. The experiment in a line: whole-cell patch clamp recordings, HEK293T cells transiently transfected with TRPV3-EGFP. It counts as cell-based, Mouse. To be noted: 100 μM 2APB.
From the text: as §1, §2, §3

The subject of a further experiment is COS cells. In words: FRET-based calcium sensing inside living COS cells (quantum dots + Calcium Crimson). To be noted: 405 nm laser; COS cells with internalized quantum dots and Calcium Crimson. It counts as cell-based. The procedure:
Quantum dot nanoparticles with an absorption peak at ˜405 nm and an emission peak at ˜580 nm (“Birch Yellow, Type 2”, Evident Corp.) were internalized by COS cells that had been previously loaded with a calcium-sensitive dye with absorption ˜580 nm, emission ˜620 nm (Calcium Crimson; Invitrogen N. C-3018). Dye loading was performed according to the directions of the manufacturer, and electroporation was used to enhance nanoparticle uptake. Live cells were illuminated with a 405 nm laser and emission from the sample was collected through a narrow bandgap filter centered around 620 nm. […] Since the calcium-sensitive dye cannot be excited by the 405 nm laser, their activation is due to FRET from the nanoparticles. The image is a snapshot from a movie taken at mid-plane section of a cell via confocal microscopy.

The target of experiment [2] is complementary peptides EIAALEK-EIAALEK-EIAALEK / KIAALKE-KIAALKE-KIAALKE. To be noted: heterodimer (78); read-out: dissociation constant; cited from earlier work.
Experiment [3] has as its system TRPV3-EGFP-cc. The experiment in a line: pull-down of engineered ion channel subunit TRPV3-EGFP-cc from cell lysate by functionalized nanoparticles, Western blot. In kind it is binding, Mouse. On the procedure: Nanoparticle synthesis and conjugation. These were performed as described in the previous example.
Pull-down experiments. These were performed essentially as described in the previous example except that (i) two different ratios of peptides/nanoparticle (10 μM or 100 μM peptide) were used to test their effect on binding ability; and (ii) lysates were made from cells that expressed engineered ion channel subunits TRPV3-EGFP-cc and TRPV3-EGFP, which are described in Example 6.

Another experiment has as its system EGFP-cc. In words: pull-down of EGFP-cc from cell lysate by functionalized nanoparticles, Western blot. It counts as binding. The conditions noted are these: for pull-down / binding of EGFP-cc: lysate of cells expressing EGFP-cc, anti-EGFP Western blot. The text has this:
Nanoparticle synthesis and conjugation. Dye-doped silica nanoparticles containing the fluorescent dye tris (2,2′-bipyridine) dichlororuthenium (II) hexahydrate) (Ru(bpy)) were synthesized following the reverse microemulsion procedure described by Tan and coworkers (35). These particles are approximately 40 nm in diameter and can be dispersed in de-ionized water. To impart biocompatibility (stability in PBS and other physiological buffers), particles were coated with bovine serum albumin (BSA) by mixing the nanoparticles in aqueous solution with an equal volume of freshly prepared BSA solution (1% weight in water). The mixture was incubated at room temperature for 1 h, after which it was brought to a standard PBS concentration by addition of an appropriate amount of concentrated PBS solution (10× PBS) and left standing overnight at room temperature. Excess BSA was then removed by repeated cycles of centrifugation (12 min at 9,500 rpm), removal of the supernatant and resuspension in PBS (a step involving bath sonication for a few minutes).
Conjugation of the nanoparticles to the recognition domain peptide CGG-(KVSALKE)3, (SEQ ID NO: 44) which contains a three amino acid spacer (CGG) followed by three copies of the KVSALKE (SEQ ID NO: 1) heptad sequence (cc, custom synthesized by the MIT biopolymer lab) was achieved using commercial crosslinking chemistry. Amine groups on the surface of BSA-coated nanoparticles (there are 35 lysine groups accessible at the surface of each BSA molecule) were activated by transferring the nanoparticles to a solution of 10 μM or 100 μM freshly prepared MBS (an amine-to-thiol crosslinker, available from Pierce Biotechnology) in PBS. After 20 min incubation, nanoparticles were washed by centrifugation and resuspension in a conjugation buffer (PBS at pH 7 and 1 mM EDTA). Since the recognition peptide contains a cysteine (chosen for conjugation), reduction of possible disulfide bonds was performed (using TCEP reducing gel, Pierce Biotechnology) before addition to the activated nanoparticles. Conjugation was completed by adding the reduced peptide at a concentration of 10 μM or 100 μM to nanoparticles activated with MBS at the same respective concentrations. After peptide addition, nanoparticles were incubated overnight in a gently rotating tube at 4° C., after which they were washed 3 times in PBS.
HEK 293T cells were transiently transfected with a construct encoding either EGFP or the EGFP-cc construct containing (EVSALEK)4 (SEQ ID NO: 4) fused to the N-terminus of EGFP as described in Example 6. 2×10^6 cells were lysed in 200 μl Lysis buffer (PBS, pH7.4 with 1% Triton-X100) and afterwards diluted with 800 μl PBS to obtain 1 ml of cell lysate with 0.2% Triton-X100. Pull-down experiments were performed by incubating 100 μL of nanoparticles with 900 μL of cell lysate for one hour at 4° C. (with gentle rotation). Particles were then centrifuged (12 min at 9,500 rpm) and the supernatant removed. After brief washing of the pellet with 100 μL of PBS, particles were resuspended by sonication in 50 μL of PBS and the resulting solution analyzed by Western blot using antibodies to EGFP (Covance) according to standard methods.

Entries after “also recorded” stand apart in the source; their conditions may differ. Ends that are not written are not given here.

Take `NCCOB(c1ccccc1)c1ccccc1` [2APB]: the “reversibility of the 2APB effect” value in the experiment with TRPV3-EGFP-cc [1] and in the experiment on TRPV3-EGFP was “quickly washed out” each time. Besides, the “response of cells to application of 2APB (whole-cell current)” value is listed as “responded similarly” in the experiment with TRPV3-EGFP-cc [1] (voltage ramp −100 mV to +100 mV, compared with TRPV3-EGFP) and “responded similarly” in the experiment with TRPV3-EGFP (voltage ramp −100 mV to +100 mV, compared with TRPV3-cc).

For `C/C=C(/C)C(=O)O[C@H]1C(C)=C2[C@H]([C@@H]1OC(=O)CCCCCCC)[C@@](C)(OC(C)=O)C[C@H](OC(=O)CCC)[C@@]1(O)[C@H]2OC(=O)[C@@]1(C)O` [thapsigargin], the “emission at 620 nm upon addition of compound (calcium signal by FRET)” value in the experiment with COS cells is recorded as “flashes of light (orange dots) were detected only in the immediate vicinity of the nanoparticles”.

For the molecule “EIAALEK-EIAALEK-EIAALEK (SEQ ID NO: 5) and KIAALKE-KIAALKE-KIAALKE (SEQ ID NO: 6) (chain 1 EIAALEKEIAALEKEIAALEK; chain 2 KIAALKEKIAALKEKIAALKE; Complementary peptides) [IAAL-E3/K3 coiled-coil]”, in experiment [2], the Kd is 70 nM.

With “NP-cc: BSA-coated Ru(bpy) dye-doped silica nanoparticles (~40 nm) conjugated to recognition peptide CGG-(KVSALKE)3 (SEQ ID NO: 44) (CGGKVSALKEKVSALKEKVSALKE; also: Cys crosslinked to BSA-coated Ru(bpy) dye-doped silica nanoparticles)”, the “binding to ion channel subunit containing the complementary target domain” value in the experiment on TRPV3-EGFP-cc [3] (lysate of cells expressing TRPV3-EGFP-cc, anti-EGFP Western blot) was “confirm the binding”. For the same molecule, the “pull-down of TRPV3-EGFP-cc” value in the experiment on TRPV3-EGFP-cc [3] (nanoparticles conjugated with 10 μM peptide (lane 6)) is “only a small amount of pull-down”. Further, the “dependence of amount of EGFP-cc pulled down on amount of peptide conjugated” value with EGFP-cc (different amounts of CGG-(KVSALKE)3 conjugated, data not shown) was “proportional to the number of heptad repeat peptides conjugated to the nanoparticles”. In addition, the “pull-down / binding of EGFP-cc” value in the experiment on EGFP-cc is “only NP-cc can pull down EGFP-cc; also recorded: confirm the binding”; in the experiment with EGFP-cc (listed as functionalized nanoparticles), “strong band at the position expected for EGFP-cc”. Besides, the results for the “pull-down of EGFP-cc” value in the experiment on EGFP-cc (nanoparticles conjugated with 10 μm peptide) and in the experiment with EGFP-cc (nanoparticles conjugated with 100 μm peptide) were “did not result in detectable pull-down” and “presence of EGFP-cc”, respectively.
